# Source: patent US4816393A, “Nucleoside triphosphate-dependent 1-methylhydantoinase, a process for obtaining it and the use thereof” (Boehringer Mannheim GmbH, priority 1984, dated 1989)
# Like-named read-outs stand apart in the source and are kept apart here.
# Columns and labels:
# 1-methylhydantoinase [1] = assay: Michaelis constants of 1-methylhydantoinase; format: biochemical, Arthrobacter species DSM 2563; details: pH 7.8
# 1-methylhydantoinase [2] = assay: Activators of 1-methylhydantoinase; format: biochemical, Arthrobacter species DSM 2563
# Procedure: Relative activity in % (30 mmol/liter ammonium sulphate (AS)=100)
# (§1) The activity determination was carried out as follows: […]
# (§2) 2. 1-Methylhydantoin solution: 10 mmol/liter
# (§3) Wavelength 546 mn; T=25° C.; light path 1 cm.; final volume 2.03 ml.; extinction coefficient of the dye formed=13 cm^2 /μmol. […]
# (§4) ^++ For the investigation according to Points 2, 3b, 4, 5 and 6 given
# (§5) 4. Calculation: [formula] Remark: ΔA/min. must not to be more than 0.66; otherwise dilute sample. Lag phase about 5 minutes.
# 1-methylhydantoinase [3] = assay: Nucleotide specificity of 1-methylhydantoinase (via carbamoylsarcosinamidohydrolase + sarcosine oxidase); format: biochemical, Arthrobacter species DSM 2563; details: nucleotide 4 mmol/liter
# Procedure: Relative activity in % (ATP=100) determined via the reaction sequence catalyzed by carbamoylsarcosinamidohydrolase+sarcosine oxidase:
# as §1, §2, §3, §4, §5
# 1-methylhydantoinase [4] = assay: Inhibitors of 1-methylhydantoinase; format: biochemical, Arthrobacter species DSM 2563; details: for relative activity %: 7.5 mM Mg++ in the reaction mixture
# Procedure: as §1, §2, §3, §4, §5
# 1-methylhydantoinase [5] = assay: Metal ion dependence of 1-methylhydantoinase activity; format: biochemical, Arthrobacter species DSM 2563
# Procedure: Relative activity in % (5 mmol/liter magnesium chloride=100)
# as §1
# 2. 1-Methylhydantoin solution: 10 mmol/liter […]
# as §4, §5
# 1-methylhydantoinase [6] = assay: Enzymatic colour test for the determination of creatinine; format: biochemical
# Source text: 1. Enzymatic colour tetst for the determination of 1-methylhydantoin (1-methylhydantoinase/N-carbamoylsarcosinamidohydrolase/sarcosine oxidase reaction with peroxidase/4-aminoantipyrine/2,4,6-tribromo-3-hydroxybenzoicacid colour indicator system) […]
# Corresponding to reagent 1.1. of Example 5, however with the addition of creatinine iminohydrolase, 2 U/ml. (final concentration).
# Corresponding to Point 1.2 of Example 5 but, as sample, there are used aqueous creatinine solutions (0.0877 to 1.754 mmol/liter) and the incubation period for P and RL is prolonged to 20 minutes.
# [7] = activator substance 30 mmol/liter
compound,measurement,setting,value
CN1CC(=O)NC1=O [1-methylhydantoin],Km,"1-methylhydantoinase [1]; 0.15 mol/liter TES, via ATP, read-out: Km 1-methylhydantoin",20 µM
"N.N.O=S(=O)(O)O [(NH4)2 SO4, ammonium sulphate]",Relative activity in % (30 mmol/liter ammonium sulphate (AS)=100),1-methylhydantoinase [2]; [7],100%
same,Relative activity in % (30 mmol/liter ammonium sulphate (AS)=100),1-methylhydantoinase [2]; activator substance 10 mol/liter,95%
Nc1ncnc2c1ncn2[C@@H]1O[C@H](COP(=O)(O)OP(=O)(O)O)[C@@H](O)[C@H]1O [ADP],Relative activity in % (ATP=100),1-methylhydantoinase [3],1%
Nc1ncnc2c1ncn2[C@@H]1O[C@H](COP(=O)(O)O)[C@@H](O)[C@H]1O [AMP],Relative activity in % (ATP=100),1-methylhydantoinase [3],0%
"Nc1ncnc2c1ncn2[C@@H]1O[C@H](COP(=O)(O)OP(=O)(O)OP(=O)(O)O)[C@@H](O)[C@H]1O [ATP, adenosine-5'-triphosphate]",Relative activity in % (ATP=100),1-methylhydantoinase [3],100%
same,Km,"1-methylhydantoinase [1]; TES 0.15 mol/liter, via sarcosine, read-out: Km ATP",800 µM
Nc1ccn([C@@H]2O[C@H](COP(=O)(O)OP(=O)(O)OP(=O)(O)O)[C@@H](O)[C@H]2O)c(=O)n1 [CTP],Relative activity in % (ATP=100),1-methylhydantoinase [3],1.5%
O=C(O)CN(CCN(CC(=O)O)CC(=O)O)CC(=O)O [EDTA],Inhibition (in words),1-methylhydantoinase [4],Significant inhibition
same,relative activity %,1-methylhydantoinase [4]; EDTA 5 mol/liter (so in the source),100%
same,relative activity %,1-methylhydantoinase [4]; EDTA 10 mol/liter (so in the source),42%
same,relative activity %,1-methylhydantoinase [4]; EDTA 50 mol/liter (so in the source),2%
Nc1nc2c(ncn2[C@@H]2O[C@H](COP(=O)(O)OP(=O)(O)OP(=O)(O)O)[C@@H](O)[C@H]2O)c(=O)[nH]1 [GTP],Relative activity in % (ATP=100),1-methylhydantoinase [3],7%
O=S(=O)([O-])[O-].[K+].[K+] [K2 SO4],Relative activity in % (30 mmol/liter ammonium sulphate (AS)=100),1-methylhydantoinase [2]; [7],59%
O=S(=O)([O-])[O-].[Li+].[Li+] [Li2 SO4],Relative activity in % (30 mmol/liter ammonium sulphate (AS)=100),1-methylhydantoinase [2]; [7],40%
"[Cl-].[Cl-].[Mg+2] [MgCl2, magnesium chloride]",Relative activity in % (5 mmol/liter magnesium chloride=100),1-methylhydantoinase [5]; metal salt 1 mmol/liter,83%
same,Relative activity in % (5 mmol/liter magnesium chloride=100),1-methylhydantoinase [5]; metal salt 5 mmol/liter,100%
same,Relative activity in % (5 mmol/liter magnesium chloride=100),1-methylhydantoinase [5]; metal salt 10 mmol/liter,98%
[Cl][Mn][Cl] [MnCl2],Relative activity in % (5 mmol/liter magnesium chloride=100),1-methylhydantoinase [5]; metal salt 5 mmol/liter,60%
"Cl.N [NH4 Cl, ammonium chloride]",Relative activity in % (30 mmol/liter ammonium sulphate (AS)=100),1-methylhydantoinase [2]; [7],91%
CC(=O)O [NH4 acetate],Relative activity in % (30 mmol/liter ammonium sulphate (AS)=100),1-methylhydantoinase [2]; [7],98%
N [NH4^+],Activation (in words),1-methylhydantoinase [2],Significant activation
O=S(=O)([O-])[O-].[Na+].[Na+] [Na2 SO4],Relative activity in % (30 mmol/liter ammonium sulphate (AS)=100),1-methylhydantoinase [2]; [7],39%
O=P([O-])([O-])OP(=O)([O-])OP(=O)([O-])[O-].[Na+].[Na+].[Na+].[Na+].[Na+] [Na tripolyphosphate],Relative activity in % (ATP=100),1-methylhydantoinase [3],0%
[Cl-].[Na+] [NaCl],Relative activity in % (30 mmol/liter ammonium sulphate (AS)=100),1-methylhydantoinase [2]; [7],41%
[F-].[Na+] [NaF],Inhibition (in words),1-methylhydantoinase [4],Significant inhibition
same,inhibition,1-methylhydantoinase [4]; 1×10^-2 mol/liter,100%
O=C(O)O [NaHCO3],Relative activity in % (30 mmol/liter ammonium sulphate (AS)=100),1-methylhydantoinase [2]; [7],40%
"O=P(O)(O)OP(=O)(O)O [PPi, pyrophosphate]",Relative activity in % (ATP=100),1-methylhydantoinase [3],0%
Cc1cn([C@H]2C[C@H](O)[C@@H](COP(=O)(O)OP(=O)(O)OP(=O)(O)O)O2)c(=O)[nH]c1=O [TTP],Relative activity in % (ATP=100),1-methylhydantoinase [3],0%
O=c1ccn([C@@H]2O[C@H](COP(=O)(O)OP(=O)(O)OP(=O)(O)O)[C@@H](O)[C@H]2O)c(=O)[nH]1 [UTP],Relative activity in % (ATP=100),1-methylhydantoinase [3],0%
[Cl-].[Cl-].[Zn+2] [ZnCl2],Relative activity in % (5 mmol/liter magnesium chloride=100),1-methylhydantoinase [5]; metal salt 5 mmol/liter,24%
CN(CC(=O)O)C(=N)N [creatine],colour reaction,"1-methylhydantoinase [6]; creatine solution (884 μmol/liter) as sample instead of creatinine, test batch 8.2",no colour reaction
CN1CC(=O)NC1=N [creatinine],colour reaction,1-methylhydantoinase [6]; creatinine iminohydrolase omitted from Reagent 8.1,no colour reaction
Na hexametaphosphate,Relative activity in % (ATP=100),1-methylhydantoinase [3],0%
